Results on 31 molecules are retold here after patent US20230405008A1, “TREATMENT OF HEMATOLOGICAL MALIGNANCIES WITH INHIBITORS OF MENIN” (Kura Oncology, Inc., priority 2020, published 2023).

The target in the test is T1, menin-MLL interaction (Homo sapiens, UniProt O00255).
T1 sequence (O00255 1-610): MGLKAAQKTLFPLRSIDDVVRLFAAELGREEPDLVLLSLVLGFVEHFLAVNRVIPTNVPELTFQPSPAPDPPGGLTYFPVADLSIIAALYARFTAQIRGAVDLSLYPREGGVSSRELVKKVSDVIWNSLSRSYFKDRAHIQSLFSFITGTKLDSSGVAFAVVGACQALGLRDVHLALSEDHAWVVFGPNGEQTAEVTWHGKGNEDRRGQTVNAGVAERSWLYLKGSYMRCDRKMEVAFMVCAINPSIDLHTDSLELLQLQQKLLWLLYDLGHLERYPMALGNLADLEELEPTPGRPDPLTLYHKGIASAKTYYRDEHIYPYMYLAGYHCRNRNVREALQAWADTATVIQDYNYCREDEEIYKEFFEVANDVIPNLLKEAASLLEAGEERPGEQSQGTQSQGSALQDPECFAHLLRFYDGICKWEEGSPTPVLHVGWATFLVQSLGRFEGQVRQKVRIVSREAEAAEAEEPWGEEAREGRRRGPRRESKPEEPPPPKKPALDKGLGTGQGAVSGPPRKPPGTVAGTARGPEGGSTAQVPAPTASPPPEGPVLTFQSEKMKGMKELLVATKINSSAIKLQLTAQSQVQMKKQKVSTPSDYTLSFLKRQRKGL
The experiment in a line: Fluorescence polarization (FP) competition assay. Format: binding. The settings on record: menin / MLL 4-43 peptide. For orientation: In fluorescence polarisation assays a small probe gives low polarisation when free and higher when bound to something large.
The term IC50 denotes the concentration at which inhibition is half-maximal. `C=CC(=O)Nc1ccc(C(Cn2c(C#N)cc3c(C)c(CN4CCC(Nc5ncnc6sc(CC(F)(F)F)cc56)CC4)ccc32)OC)cc1` (stereo not shown) [Compound I-1] came in with an IC50 of 250 to 1000 nM.
In the case of `Cc1c(CN2CCC(Nc3ncnc4sc(CC(F)(F)F)cc34)CC2)ccc2c1cc(C#N)n2CC(C)C1CCN(S(C)(=O)=O)CC1` (stereo not shown) [Compound I-3] it was 250 to 1000 nM.
To `Cc1c(CN2CCC(Nc3ncnc4sc(CC(F)(F)F)cc34)CC2)ccc2c1cc(C#N)n2CC(C(C)C)N1CCN(S(C)(=O)=O)CC1` (stereo not shown) [Compound I-24] belongs 250 to 1000 nM; to `CC[C@H]1CN(C(C)Cn2c(C#N)cc3c(C)c(CN4CCC(Nc5ncnc6sc(CC(F)(F)F)cc56)CC4)ccc32)CCN1S(C)(=O)=O` (stereo partly shown) [Compound I-26], 250 to 1000 nM.
To `Cc1c(CN2CCC(Nc3ncnc4sc(CC(F)(F)F)cc34)CC2)ccc2c1cc(C#N)n2CCN1CC(C)N(S(C)(=O)=O)CC1C` (stereo not shown) [Compound I-44] belongs 250 to 1000 nM.
Consider `Cc1c(CN2CCC(Nc3ncnc4sc(CC(F)(F)F)cc34)CC2)ccc2c1cc(C#N)n2CCN1CCN(S(C)(=O)=O)CC1C` (stereo not shown) [Compound I-45], for which the 50% inhibitory concentration (IC50) is 250 to 1000 nM.
For the molecule `Cc1c(CN2CCC(Nc3ncnc4sc(CC(F)(F)F)cc34)CC2)ccc2c1cc(C#N)n2CCN1CCN(C2CCN(S(C)(=O)=O)C2)CC1` (stereo not shown) [Compound I-52], the IC50 lay within 250 to 1000 nM.
In the case of `Cc1c(CN2CCC(Nc3ncnc4sc(CC(F)(F)F)cc34)CC2)ccc2c1cc(C#N)n2CCN1CCC2(CCN(S(C)(=O)=O)C2)C1` (stereo not shown) [Compound I-53] it was 250 to 1000 nM; in that of `Cc1c(CN2CCC(Nc3ncnc4sc(CC(F)(F)F)cc34)CC2)ccc2c1cc(C#N)n2CCN1CCC2(CC1)CC(S(C)(=O)=O)C2` [Compound I-54], 50 to 250 nM; in that of `Cc1c(CN2CCC(Nc3ncnc4sc(CC(F)(F)F)cc34)CC2)ccc2c1cc(C#N)n2CCN1CC2CN(S(C)(=O)=O)CC2C1` (stereo not shown) [Compound I-55], 250 to 1000 nM.
To `Cc1c(CN2CCC(Nc3ncnc4sc(CC(F)(F)F)cc34)CC2)ccc2c1cc(C#N)n2CCN1CC2(CCN(S(C)(=O)=O)CC2)C1` [Compound I-56] belongs 250 to 1000 nM; to `Cc1c(CN2CCC(Nc3ncnc4sc(CC(F)(F)F)cc34)CC2)ccc2c1cc(C#N)n2CCN1CC2(C1)CN(S(C)(=O)=O)C2` [Compound I-57], 250 to 1000 nM.
For the molecule `Cc1c(CN2CCC(Nc3ncnc4sc(CC(F)(F)F)cc34)CC2)ccc2c1cc(C#N)n2CCN1CC2(CCN(S(C)(=O)=O)C2)C1` [Compound I-58], the IC50 was 250 to 1000 nM.
In the case of `Cc1c(CN2CCC(Nc3ncnc4sc(CC(F)(F)F)cc34)CC2)ccc2c1cc(C#N)n2CCC1CCN(S(C)(=O)=O)C(C)C1` (stereo not shown) [Compound I-59] it was 250 to 1000 nM; in that of `CNS(=O)(=O)N1CCN([C@H](C)Cn2c(C#N)cc3c(C)c(CN4CCC(Nc5ncnc6sc(CC(F)(F)F)cc56)CC4)ccc32)CC1` [Compound I-66], 250 to 1000 nM.
To `Cc1c(CN2CCC(Nc3ncnc4sc(CC(F)(F)F)cc34)CC2)ccc2c1cc(C#N)n2C[C@@H](C)N1CCN(C=O)CC1` [Compound I-67] belongs 250 to 1000 nM.
`Cc1c(CN2CCC(Nc3ncnc4sc(CC(F)(F)F)cc34)CC2)ccc2c1cc(C#N)n2CC(C)N1CCN(S(C)(=O)=O)C(C(=O)O)C1` (stereo not shown) [Compound I-82] returned an IC50 of 250 to 1000 nM.
Take `Cc1c(CN2CCC(Nc3ncnc4sc(CC(F)(F)F)cc34)CC2)ccc2c1cc(C#N)n2C[C@H](C)N1CCN(C(=O)C(F)(F)F)CC1` [Compound I-118]: the IC50 lay within 250 to 1000 nM.
In the case of `CNS(=O)(=O)N1CCN(C(C)Cn2c(C#N)cc3c(C)c(CN4CCC(Nc5ncnc6sc(CC(F)(F)F)cc56)CC4)ccc32)CC1` (stereo not shown) [Compound I-128] it was 50 to 250 nM.
In the case of `Cc1c(CN2CCC(Nc3ncnc4sc(CC(F)(F)F)cc34)CC2)ccc2c1cc(C#N)n2C[C@H](C)N1CCC(NP(C)(C)=O)CC1` [Compound I-157] it was 250 to 1000 nM.
With `Cc1c(CN2CCC(Nc3ncnc4sc(CC(F)(F)F)cc34)CC2)ccc2c1cc(C#N)n2CC(C)N1CCC(NS(C)(=O)=O)C1` (stereo not shown) [Compound I-162], the IC50 is 50 to 250 nM.
In the case of `Cc1c(CN2CCC(Nc3nc(C4CC4)nc4sc(CC(F)(F)F)cc34)CC2)ccc2c1cc(C#N)n2C[C@H](C)N1CCN(S(C)(=O)=O)CC1` [Compound I-173] it was 250 to 1000 nM.
In the case of `CNc1nc(NC2CCN(Cc3ccc4c(cc(C#N)n4C[C@H](C)N4CCN(S(=O)(=O)NC)CC4)c3C)CC2)c2cc(CC(F)(F)F)sc2n1` [Compound I-185] it was 50 to 250 nM; in that of `Cc1nc(NC2CCN(Cc3ccc4c(cc(C#N)n4C[C@@H](C)N4CCN(S(C)(=O)=O)CC4)c3C)CC2)c2cc(CC(F)(F)F)sc2n1` [Compound I-201], 250 to 1000 nM.
In the case of `CNc1nc(NC2CCN(Cc3ccc4c(cc(C#N)n4CCN4CCN(S(C)(=O)=O)[C@H](C#N)C4)c3C)CC2)c2cc(CC(F)(F)F)sc2n1` [Compound I-209] it was < 50 nM; in that of `COc1nc(NC2CCN(Cc3ccc4c(cc(C#N)n4C[C@H](C)N4CCC(S(C)(=O)=O)CC4)c3C)CC2)c2cc(CC(F)(F)F)sc2n1` [Compound I-218], < 50 nM.
Consider `CCS(=O)(=O)NC12CC(Cn3c(C#N)cc4c(C)c(CN5CCC(Nc6ncnc7sc(CC(F)(F)F)cc67)CC5)ccc43)(C1)C2` [II-4], for which the half-inhibitory concentration (IC50) lay in the range of 250 to 1000 nM.
To `Cc1c(CN2CCC(Nc3ncnc4sc(CC(F)(F)F)cc34)CC2)ccc2c1cc(C#N)n2CC12CC(NC(=O)C3CCCC(=O)N3)(C1)C2` (stereo not shown) [II-35] belongs < 50 nM; to `Cc1c(CN2CCC3(CCN(c4ncnc5sc(CC(F)(F)F)cc45)C3)C2)ccc2[nH]c(C#N)cc12` (stereo not shown) [III-30a], 50 to 250 nM; to `CS(=O)(=O)Nc1ccc(CN2CCC3(CCN(c4ncnc5sc(CC(F)(F)F)cc45)C3)C2)cc1` (stereo not shown) [III-38], 50 to 250 nM.
To `CS(=O)(=O)N[C@H]1CC[C@H](CN2CCC3(CCN(c4ncnc5sc(CC(F)(F)F)cc45)C3)C2)CC1` (stereo partly shown) [III-48] belongs 250 to 1000 nM.
